# Read-outs that look alike come from different tables or passages of the source.
# Tests used:
# [1] = test system: hiPSC-derived neurons co-cultured with human primary astrocytes in 2D; assay: Ca2+ transient oscillation assay (FDSS), 2D co-culture; assay type: cell-based; conditions: for activation at 0.37 µM / activation at 1.11 µM / activation at 3.33 µM / activation at 10 µM / activation at 3.7 µM / activation at 11.11 µM / activation at 33.33 µM / activation at 100 µM: Homo sapiens, 1 h, 60 min
# Outline: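 Cultures were 10,000 CW50065 hiPSC excitatory neurons plus 2500 primary human astrocytes per well. Recordings used Cal-520 dye in HBSS/HEPES/glucose at 37 °C, with a 470/540 nm read at 2 Hz. Oscillations were stabilized with 0.04% DMSO, read for 20 min, then read again 60 min after compound addition (final DMSO 0.1%).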
# [2] = test system: hiPSC-derived neurons co-cultured with human primary astrocytes in 3D; assay: Ca2+ transient oscillation assay (FDSS), 3D spheroids; assay type: cell-based; conditions: for Area under the curve - 3D Mean / Peak Number—3D Mean / Peak amplitude - 3D Mean / Peak width - 3D Mean / Peak-to-peak interval - 3D Mean: 60 min
# Outline: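 Fura-2 fluorescence was read twice for 20 min each: a baseline 10 min after 0.04% DMSO, and again 60 min after compound addition at nominal final concentration. The 3D co-cultures (1:1 hiPSC neurons from a donor and human astrocytes, 8000 each) matured 5 weeks in BrainPhys medium after a 1-week differentiation.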
# [3] = ref PharmaPendium, cited from earlier work
# [4] = read-out: Area under the curve - 2D Mean
# [5] = read-out: Peak amplitude - 2D Mean
# [6] = read-out: Peak-to-peak interval - 2D Mean
# [7] = Table 1, peak plasma concentration in men, free therapeutic Cmax
# [8] = Table 2, highest plasma concentration in humans after the therapeutic dose
compound,measurement,setting,value
CNCCCC12CCC(c3ccccc31)c1ccccc12 [Maprotiline],"effect on peak number / Ca2+ neuronal oscillations, in words",[1]; 2D format,significantly reduced peak number
same,activation at 0.37 µM,[1]; [4],12.2%
same,activation at 0.37 µM,[1]; read-out: Peak Number—2D Mean,-0.7%
same,activation at 0.37 µM,[1]; [5],8.3%
same,activation at 0.37 µM,[1]; read-out: Peak width - 2D Mean,4.5%
same,activation at 0.37 µM,[1]; [6],1.8%
same,activation at 1.11 µM,[1]; [4],-55.2%
same,activation at 1.11 µM,[1]; read-out: Peak Number—2D Mean,0.5%
same,activation at 1.11 µM,[1]; [5],-19.8%
same,activation at 1.11 µM,[1]; read-out: Peak width - 2D Mean,-57.2%
same,activation at 1.11 µM,[1]; [6],11.7%
same,activation at 3.33 µM,[1]; [4],-100%
same,activation at 3.33 µM,[1]; read-out: Peak Number—2D Mean,-100%
same,activation at 3.33 µM,[1]; [5],-100%
same,activation at 3.33 µM,[1]; read-out: Peak width - 2D Mean,-100%
same,activation at 3.33 µM,[1]; [6],-100%
same,activation at 10 µM,[1]; [4],-100%
same,activation at 10 µM,[1]; read-out: Peak Number—2D Mean,-100%
same,activation at 10 µM,[1]; [5],-100%
same,activation at 10 µM,[1]; read-out: Peak width - 2D Mean,-100%
same,activation at 10 µM,[1]; [6],-100%
same,Area under the curve - 3D Mean,[2]; 0.37 µM,139.7 % change from baseline
same,Peak Number—3D Mean,[2]; 0.37 µM,−16.5 % change from baseline
same,Peak amplitude - 3D Mean,[2]; 0.37 µM,116.3 % change from baseline
same,Peak width - 3D Mean,[2]; 0.37 µM,6.2 % change from baseline
same,Peak-to-peak interval - 3D Mean,[2]; 0.37 µM,6.2 % change from baseline
same,Area under the curve - 3D Mean,[2]; 1.11 µM,133.4 % change from baseline
same,Peak Number—3D Mean,[2]; 1.11 µM,−8.2 % change from baseline
same,Peak amplitude - 3D Mean,[2]; 1.11 µM,131.3 % change from baseline
same,Peak width - 3D Mean,[2]; 1.11 µM,−1.0 % change from baseline
same,Peak-to-peak interval - 3D Mean,[2]; 1.11 µM,8.4 % change from baseline
same,Area under the curve - 3D Mean,[2]; 3.33 µM,123.1 % change from baseline
same,Peak Number—3D Mean,[2]; 3.33 µM,−7.9 % change from baseline
same,Peak amplitude - 3D Mean,[2]; 3.33 µM,130.1 % change from baseline
same,Peak width - 3D Mean,[2]; 3.33 µM,−3.2 % change from baseline
same,Peak-to-peak interval - 3D Mean,[2]; 3.33 µM,10.6 % change from baseline
same,Area under the curve - 3D Mean,[2]; 10 µM,11.9 % change from baseline
same,Peak Number—3D Mean,[2]; 10 µM,1.9 % change from baseline
same,Peak amplitude - 3D Mean,[2]; 10 µM,72.2 % change from baseline
same,Peak width - 3D Mean,[2]; 10 µM,−40.8 % change from baseline
same,Peak-to-peak interval - 3D Mean,[2]; 10 µM,−4.1 % change from baseline
same,"effect on peak number of oscillations, in words",[2]; 3D-cultured,did not significantly change the peak number
same,Free Cmax,[3]; [7],60 nM
same,Free Cmax,[3]; [8],60 nM
CC(=O)Oc1ccccc1C(=O)O [Aspirin],activation at 3.7 µM,[1]; [4],48.5%
same,activation at 3.7 µM,[1]; read-out: Peak Number—2D Mean,-10.2%
same,activation at 3.7 µM,[1]; [5],13.1%
same,activation at 3.7 µM,[1]; read-out: Peak width - 2D Mean,43.6%
same,activation at 3.7 µM,[1]; [6],15.5%
same,activation at 11.11 µM,[1]; [4],25.7%
same,activation at 11.11 µM,[1]; read-out: Peak Number—2D Mean,17.6%
same,activation at 11.11 µM,[1]; [5],4.2%
same,activation at 11.11 µM,[1]; read-out: Peak width - 2D Mean,25.9%
same,activation at 11.11 µM,[1]; [6],1.8%
same,activation at 33.33 µM,[1]; [4],37.6%
same,activation at 33.33 µM,[1]; read-out: Peak Number—2D Mean,10.1%
same,activation at 33.33 µM,[1]; [5],6.2%
same,activation at 33.33 µM,[1]; read-out: Peak width - 2D Mean,38.3%
same,activation at 33.33 µM,[1]; [6],-0.5%
same,activation at 100 µM,[1]; [4],30%
same,activation at 100 µM,[1]; read-out: Peak Number—2D Mean,27.9%
same,activation at 100 µM,[1]; [5],3.9%
same,activation at 100 µM,[1]; read-out: Peak width - 2D Mean,32.1%
same,activation at 100 µM,[1]; [6],-17%
same,Area under the curve - 3D Mean,[2]; 3.7 µM,139.0 % change from baseline
same,Peak Number—3D Mean,[2]; 3.7 µM,−0.4 % change from baseline
same,Peak amplitude - 3D Mean,[2]; 3.7 µM,129.1 % change from baseline
same,Peak width - 3D Mean,[2]; 3.7 µM,4.2 % change from baseline
same,Peak-to-peak interval - 3D Mean,[2]; 3.7 µM,10.9 % change from baseline
same,Area under the curve - 3D Mean,[2]; 11.11 µM,139.2 % change from baseline
same,Peak Number—3D Mean,[2]; 11.11 µM,0.0 % change from baseline
same,Peak amplitude - 3D Mean,[2]; 11.11 µM,138.1 % change from baseline
same,Peak width - 3D Mean,[2]; 11.11 µM,0.3 % change from baseline
same,Peak-to-peak interval - 3D Mean,[2]; 11.11 µM,−2.2 % change from baseline
same,Area under the curve - 3D Mean,[2]; 33.33 µM,147.8 % change from baseline
same,Peak Number—3D Mean,[2]; 33.33 µM,10.0 % change from baseline
same,Peak amplitude - 3D Mean,[2]; 33.33 µM,135.8 % change from baseline
same,Peak width - 3D Mean,[2]; 33.33 µM,5.0 % change from baseline
same,Peak-to-peak interval - 3D Mean,[2]; 33.33 µM,−1.7 % change from baseline
same,Area under the curve - 3D Mean,[2]; 100 µM,133.2 % change from baseline
same,Peak Number—3D Mean,[2]; 100 µM,−8.2 % change from baseline
same,Peak amplitude - 3D Mean,[2]; 100 µM,123.5 % change from baseline
same,Peak width - 3D Mean,[2]; 100 µM,4.7 % change from baseline
same,Peak-to-peak interval - 3D Mean,[2]; 100 µM,6.7 % change from baseline
same,Free Cmax,[3]; [7],40 to 160 nM
same,Free Cmax,[3]; [8],40 to 160 nM
